Data on 30 molecules can be found in patent US8765730B2 (Hoffmann-La Roche Inc, priority 2010, dated 2014).

The structures appear in SMILES notation. Where a name gives a salt, the structure may show the parent alone.

The target of this experiment is T1, human GPBAR1 receptor (Homo sapiens, UniProt Q8TDU6).
T1 construct: expressed in transfected cells
T1 sequence (Q8TDU6 1-330): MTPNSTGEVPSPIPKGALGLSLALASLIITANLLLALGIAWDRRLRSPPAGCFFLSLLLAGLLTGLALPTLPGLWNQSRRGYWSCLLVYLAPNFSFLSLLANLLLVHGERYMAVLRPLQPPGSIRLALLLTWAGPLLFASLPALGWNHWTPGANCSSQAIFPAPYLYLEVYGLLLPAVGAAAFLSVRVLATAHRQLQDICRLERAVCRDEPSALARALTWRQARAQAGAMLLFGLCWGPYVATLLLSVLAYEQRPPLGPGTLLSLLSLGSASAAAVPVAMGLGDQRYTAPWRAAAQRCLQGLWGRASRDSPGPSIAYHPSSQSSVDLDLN
Kind of experiment: functional cAMP assay in CHO-dhfr(minus) cells expressing human GPBAR1 receptors. In kind it is cell-based. The conditions noted are these: human EC50, functional cAMP assay, 30 min at 30° C. The procedure, abridged: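 Agonist cAMP read-out: stable GPBAR1 CHO-dhfr− clone, 30 min compound exposure at 30° C following 30 min IBMX (1 mM) preincubation in Krebs Ringer bicarbonate. Time-resolved energy-transfer detection gives EC50; parental CHO cells serve as counter-screen.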
With `Cc1cc(/C(C[C@@H](c2ccc(N3CCC(CC(=O)O)CC3)cc2)c2ccc(F)cc2F)=N/O)ccn1` (single isomer, unassigned) [Example 430, (1-{4-[(+)-1-(2,4-Difluoro-phenyl)-3-[(E)-hydroxyimino]-3-(2-methyl-pyridin-4-yl)-propyl]-phenyl}-piperidin-4-yl)-acetic acid], a half-maximal response (EC50) required 21 nM. For `Cc1ccc(C(C/C(=N\O)c2ccc(=O)n(C)c2)c2ccc(Br)cc2)c(F)c1` (stereo not drawn) [Example 408, (E)-5-(3-(4-bromophenyl)-3-(2-fluoro-4-methylphenyl)-1-(hydroxyimino)propyl)-1-methylpyridin-2(1H)-one], the concentration for a half-maximal effect (EC50) was 118 nM. As for `Cc1ccccc1C(C/C(=N\O)c1cc(Cl)ccc1Cl)c1ccc(Br)cc1` (single isomer, unassigned; (-)) [Example 51, (−)-(E)-3-(4-bromo-phenyl)-1-(2,5-dichloro-phenyl)-3-o-tolyl-propan-1-one oxime], the figure is 933 nM; as for `Cc1cc(/C(CC(c2ccc(Br)cc2)c2ncccc2C)=N/O)ccn1` (stereo not drawn) [Example 116, (E)-3-(4-Bromo-phenyl)-3-(3-methyl-pyridin-2-yl)-1-(2-methyl-pyridin-4-yl)-propan-1-one oxime], 5 nM. Molecule `Cc1cc(Cl)ccc1[C@@H](C/C(=N\O)c1ccc(=O)n(C)c1)c1ccc(-c2ccc(S(N)(=O)=O)cc2)cc1` (single isomer, unassigned) [Example 414, (+)-4′-[1-(4-Chloro-2-methyl-phenyl)-3-[(E)-hydroxyimino]-3-(1-methyl-6-oxo-1,6-dihydro-pyridin-3-yl)-propyl]-biphenyl-4-sulfonic acid amide] yielded an EC50 of 18 nM.

On to `Cn1cc(/C(CC(c2ccccc2)c2ccccc2)=N/O)ccc1=O` [Example 161, 5-{1-[(E)-Hydroxyimino]-3,3-diphenyl-propyl}-1-methyl-1H-pyridin-2-one], for which the response was half-maximal at 119 nM (EC50). With `Cc1ccccc1C(C/C(=N\O)c1ccncc1)c1ccc(-c2cncnc2)cc1` (single isomer, unassigned; (+)) [Example 35, (+)-(E)-1-Pyridin-4-yl-3-(4-pyrimidin-5-yl-phenyl)-3-o-tolyl-propan-1-one oxime], a half-maximal effect (EC50) was put at 67 nM.

Molecule `CC(=O)N1CCN(c2ccc(C(CC(=NO)c3ccnc(C)c3)c3ccc(F)cc3F)cn2)CC1` (stereo not drawn) [Example 444, 3-[6-(4-Acetyl-piperazin-1-yl)-pyridin-3-yl]-3-(2,4-difluoro-phenyl)-1-(2-methyl-pyridin-4-yl)-propan-1-one oxime] returned an EC50 of 103 nM. Next, `Cc1cc(/C(CC(c2ccc(C(=O)NC(C)(C)CO)cc2)c2ccc(F)cc2F)=N/O)ccn1` (stereo not drawn) [Example 435, 4-[1-(2,4-Difluoro-phenyl)-3-[(E)-hydroxyimino]-3-(2-methyl-pyridin-4-yl)-propyl]-N-(2-hydroxy-1,1-dimethyl-ethyl)-benzamide]: 66 nM; `Cc1cc(Cl)ccc1C(C/C(=N\O)c1ccc(=O)n(C)c1)c1ccc(OCCCC(=O)O)cc1` (stereo not drawn) [Example 349, 4-{4-[1-(4-Chloro-2-methyl-phenyl)-3-[(E)-hydroxyimino]-3-(1-methyl-6-oxo-1,6-dihydro-pyridin-3-yl)-propyl]-phenoxy}-butyric acid]: 267 nM. Next, `Cc1ccccc1C(Cc1ccc(Br)cc1)/C(=N\O)c1ccncc1` (stereo not drawn) [Example 44, (E)-3-(4-bromo-phenyl)-1-pyridin-4-yl-2-o-tolyl-propan-1-one oxime]: 421 nM; `COc1cc(-c2ccc(C(C/C(=N\O)c3ccnc(C)c3)c3ccc(Cl)cc3F)cc2)ccc1C(=O)O` (stereo not drawn) [Example 455, 4′-[1-(4-Chloro-2-fluoro-phenyl)-3-[(E)-hydroxyimino]-3-(2-methyl-pyridin-4-yl)-propyl]-3-methoxy-biphenyl-4-carboxylic acid]: 12 nM; `COC(=O)c1ccc(-c2ccc(C(C/C(=N\O)c3ccnc(C)c3)c3ccc(Cl)cc3F)cc2)cc1OC` (stereo not drawn) [Example 454, 4′-[1-(4-Chloro-2-fluoro-phenyl)-3-[(E)-hydroxyimino]-3-(2-methyl-pyridin-4-yl)-propyl]-3-methoxy-biphenyl-4-carboxylic acid methyl ester]: 270 nM. Next, `Cc1cc(/C(C[C@H](c2ccc(N3CC(C(=O)O)C3)cc2)c2ccccc2C)=N/O)ccn1` [Example 279, 1-{4-[(R)-3-[(E)-Hydroxyimino]-3-(2-methyl-pyridin-4-yl)-1-o-tolyl-propyl]-phenyl}-azetidine-3-carboxylic acid]: 11 nM. `CC(C)CC(C/C(=N\O)c1ccc(=O)n(C)c1)c1ccc(Br)cc1` (stereo not drawn) [Example 170, 5-{3-(4-Bromo-phenyl)-1-[(E)-hydroxyimino]-5-methyl-hexyl}-1-methyl-1H-pyridin-2-one] came in with an EC50 of 453 nM.

As for `Cn1cc(/C(CC(c2ccc(Br)cc2)c2ccc(F)cc2S(C)(=O)=O)=N/O)ccc1=O` (stereo not drawn) [Example 409, (E)-5-{3-(4-Bromo-phenyl)-3-(4-fluoro-2-methanesulfonyl-phenyl)-1-(hydroxyimino)-propyl}-1-methyl-1H-pyridin-2-one], the midpoint of the response, the EC50, lay at 210 nM. As for `Cc1ccc(C(CC(=NO)c2ccncc2)c2ccc(N(C)C)cc2)cc1C` (racemic) [Example 17, 3-(4-Dimethylamino-phenyl)-3-(3,4-dimethyl-phenyl)-1-pyridin-4-yl-propan-1-one oxime], the figure is 380 nM; as for `Cc1ccccc1[C@H](C/C(=N\O)c1cc(F)ncc1Cl)c1ccc(-c2ccc(C(=O)O)cc2)cc1` [Example 293, 4′-{(R)-3-(5-Chloro-2-fluoro-pyridin-4-yl)-3-[(E)-hydroxyimino]-1-o-tolyl-propyl}-biphenyl-4-carboxylic acid], 12 nM; as for `Cc1cc(/C(C[C@H](c2ccc(-c3ccc(C(=O)O)cc3)cc2)c2ccc(Cl)cc2C)=N/O)ccn1` [Example 297, 4′-[(R)-1-(4-Chloro-2-methyl-phenyl)-3-[(E)-hydroxyimino]-3-(2-methyl-pyridin-4-yl)-propyl]-biphenyl-4-carboxylic acid], 13 nM. As to `Cc1cc(Cl)ccc1C(C/C(=N\O)c1ccc(=O)n(C)c1)c1ccc(S(C)(=O)=O)cc1` (stereo not drawn) [Example 331, (E)-5-(3-(4-chloro-2-methylphenyl)-1-(hydroxyimino)-3-(4-(methylsulfonyl)phenyl)propyl)-1-methylpyridin-2(1H)-one], the EC50 turned out to be 38 nM. Molecule `Cc1ccccc1[C@H](C/C(=N\O)c1ccc(=O)n(C)c1)c1ccc(-c2nnn[nH]2)cc1` [Example 500, (R,E)-5-(3-(4-(1H-Tetrazol-5-yl)phenyl)-1-(hydroxyimino)-3-o-tolylpropyl)-1-methyl-pyridin-2(1H)-one, sodium salt] had an EC50 of 268 nM. As for `CN(C)c1ccc(C(CC(=NO)c2ccncc2)c2c[nH]c3ccccc23)cc1` (racemic) [Example 62, 3-(4-Dimethylamino-phenyl)-3-(1H-indol-3-yl)-1-pyridin-4-yl-propan-1-one oxime], the figure is 2710 nM; as for `Cc1cc(C(CC(c2ccc(-c3ccc(C(=O)O)cc3F)cc2)c2ccccc2C)=NO)ccn1` (racemic) [Example 82, 2-Fluoro-4′-[3-[hydroxyimino]-3-(2-methyl-pyridin-4-yl)-1-o-tolyl-propyl]-biphenyl-4-carboxylic acid], 43 nM. The molecule `Cc1cccnc1C(C/C(=N\O)c1ccncc1)c1ccc(N(C)C)cc1` (stereo not drawn) [Example 65, (E)-3-(4-Dimethylamino-phenyl)-3-(3-methyl-pyridin-2-yl)-1-pyridin-4-yl-propan-1-one oxime] yielded a half-maximal effective concentration (EC50) of 39 nM. With `Cc1cc(C(C=C(c2ccccc2)c2ccccc2)=NO)cc(C)n1` (mixture of isomers) [Example 66, 1-(2,6-Dimethyl-pyridin-4-yl)-3,3-diphenyl-propenone oxime], the EC50 was 300 nM. As for `Cc1cc(Cl)ccc1C(C/C(=N\O)c1ccc(=O)n(C)c1)c1ccc(NS(C)(=O)=O)cc1` (stereo not drawn) [Example 353, N-{4-[1-(4-Chloro-2-methyl-phenyl)-3-[(E)-hydroxyimino]-3-(1-methyl-6-oxo-1,6-dihydro-pyridin-3-yl)-propyl]phenyl}-methanesulfonamide], the figure is 274 nM; as for `CCNC(=O)c1ccc(C(C/C(=N\O)c2ccc(=O)n(C)c2)c2ccccc2Cl)cc1F` (stereo not drawn) [Example 245, (E)-4-(1-(2-Chlorophenyl)-3-(hydroxyimino)-3-(1-methyl-6-oxo-1,6-dihydropyridin-3-yl)propyl)-N-ethyl-2-fluorobenzamide], 250 nM. Consider `Cn1cc(/C(CC(c2ccc(-c3ccc(CC#N)cc3)cc2)c2ccc(Cl)cc2F)=N/O)ccc1=O` (stereo not drawn) [Example 459, {4′-[1-(4-Chloro-2-fluoro-phenyl)-3-[(E)-hydroxyimino]-3-(1-methyl-6-oxo-1,6-dihydro-pyridin-3-yl)-propyl]-biphenyl-4-yl}-acetonitrile], for which a half-maximal effect (EC50) was put at 364 nM. As for `Cc1ccccc1[C@H](C/C(=N\O)c1ccc(=O)n(C)c1)c1ccc(C2CCN(S(C)(=O)=O)CC2)cc1` [Example 509, (R,E)-5-(1-(Hydroxyimino)-3-(4-(1-(methylsulfonyl)piperidin-4-yl)phenyl)-3-o-tolylpropyl)-1-methylpyridin-2(1H)-one], the figure is 99 nM; as for `Cc1cc(Cl)ccc1C(C/C(=N\O)c1ccc(=O)n(C)c1)c1ccc(OC(C)C)c(F)c1` (stereo not drawn) [Example 323, 5-{3-(4-Chloro-2-methyl-phenyl)-3-(3-fluoro-4-isopropoxy-phenyl)-1-[(E)-hydroxyimino]-propyl}-1-methyl-1H-pyridin-2-one], 179 nM.
